Series [1] is described as follows: Critical micelle concentration estimated from light scattering intensity and particle size. It is filed as physicochemical. The arrangement: critical micell concentration (CMC): unit not given here. The method, then: FIG. 1. PFPE amide 1 emulsified with Pluronic™ F68 by sonication in 1×HBSS buffer. Emulsion was diluted in 1×HBSS and particle size measured by Dynamic Light Scattering (DLS). Data represents average of two independent measurements, (mean±SD). Critical micelle concentration (CMC) of PFPE amide 1 is 22.2 mg/mL, in presence of 21.6 mol % F68 and 1×HBSS buffer, was estimated from the intersection of the graph of two curves. Measurements performed on Zetasizer Nano (Malvern, UK).
Pluronic™ F68 was dissolved in aqueous buffer (HBSS, Hyclone) at 150 mg/mL. PFPE amide 1 was added at 152 mg/mL, and the mixture (250 μL) was placed in an 1.5 mL Eppendorf vial and sonicated (at 20 W and 20 kHz) at room temperature for 30 seconds. The emulsion was then diluted 1:3 in 1×HBSS and the particle size was measured by dynamic light scattering in Malvern Zetasizer Nano within 1 h. The molar ratio of PFPE amide 1 to F68 was 4.6:1. The polydispersity (PDI) was 0.12 to 0.19 and the average particle size 200 nm. The critical micellar concentrations (CMC) for the PFPE amide 1 and F68 was estimated by plotting the light scattering intensity and average diameter and looking for the curve intersection, as shown in FIG. 1.

The subject of series [2] is dendritic cells. Kind of series: PFPE uptake in dendritic cells measured by 19F NMR. Format: cell-based, mouse. As to conditions: 3 h incubation. The method, then:
(§1) Labeling mouse dendritic cells was performed according to published methods with minor modifications^35. Dendritic cells were plated in 6-well plates, 1−2×10^6/well, and allowed to attach overnight. A PFPE diethyl amide 1/L35 emulsion was mixed with 0.3 mL of serum free media, incubated for 30 min at room temperature, and then added to the cells. After a 3 h incubation at 37° C., the cell labeling medium was removed and cells were washed three times with 1×PBS, detached by trypsinization, washed, and resuspended in 0.5 mL of complete media containing 10% FBS. A portion of the cell suspension (1/10) was used for cell number estimates by Cell Titer Glo. The cells were pelleted\ and resuspended in 0.1 mL of media for ^19F NMR measurements to assess the cell loading.
When dendritic cells were used, the cell suspension (0.1 mL) was mixed with 100 ul of 1% TFA solution in glycerol as a calibrated ^19F reference. The two solutions were mixed well and transferred into a 5 mm NMR tube. Cell uptake was calculated from the relative areas under the peak at −91.5 ppm (PFPE main peak) and the TFA internal standard peak at −76 ppm. Cellular uptake (i.e., the parameter Fc) was calculated as the mean number of fluorine atoms per single viable cell.

For series [3], the system named is dendritic cells. Kind of series: Cell number and viability of labeled dendritic cells by Cell Titer Glo. Format: cell-based, mouse. As to conditions: after labeling. The method, then:
In the examples given below, cellular number was estimated using the commercial assay Cell Titer Glo (Promega). The assay implementation is easy and highly reproducible. A correlation curve was constructed for each labeling experiment at the day of experiment using the same cell culture. When testing the viability post-labeling, a small sample (50 μL) was taken from labeled cell suspension and mixed with Cell Titer Glo reagent in triplicate. Luminescence was measured within 10 minutes and the viable cell number was estimated from a linear correlation curve prepared on the day of experiment.
as §1

Consider two substances from US8227610B2, “Compositions and methods for producing cellular labels for nuclear magnetic resonance techniques” (Carnegie Mellon University, priority 2007, dated 2012).

Regarding “Perfluoropolyether tyramide [PFPE tyramide 6]”, the “critical micell concentration (CMC)” value in series [1] (PFPE-tyramide 6/F68 24:1, thin film method, water) was 4.5. Further, in series [2], the “uptake in DCs by 19F NMR (in words)” value was “comparable to the cell labeling experiments that were facilitated with protamine sulfate”. Also, the “cell viability / toxicity in DCs (in words)” value in series [3] is on record as “non-toxic over various doses”.

As for “Perfluoropolyether diethyl amide [PFPE amide 1]”, the “critical micelle concentration (CMC)” value in series [1] (1×HBSS) is reported as 22.2 mg/mL.
